Results reported in PubChem BioAssay AID248 (DTP/NCI, 2004).
Where “and” joins values, the source holds several entries; their conditions need not be identical. Equal values may be shown once. Inconclusive results and toxic doses are left out. No stated cut-off is given here; in the data, active means T/C of 150% or more; inactive means T/C below 125%.

Test system: L1210 leukemia ip in BDF1 mice, survival T/C
Experiment: NCI In Vivo Anticancer Drug Screen. Data for tumor model L1210 Leukemia (intraperitoneal) in B6D2F1 (BDF1) mice
Settings: endpoint: mean survival time, higher = longer survival
In short: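 Transplantable tumor model; survival measured in treated vs vehicle control mice. Value = treated/control.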

[1] = dose: 100.0 mg/kg/injection, schedule: Q04DX002 (ip), vehicle: Klucel (hydroxypropylcellulose) (HPC)
[2] = dose: 200.0 mg/kg/injection, schedule: Q04DX002 (ip), vehicle: Klucel (hydroxypropylcellulose) (HPC)
[3] = dose: 400.0 mg/kg/injection, schedule: Q04DX002 (ip), vehicle: Klucel (hydroxypropylcellulose) (HPC)
[4] = dose: 50.0 mg/kg/injection, schedule: Q01DX009 (ip), vehicle: saline with Tween-80
[5] = dose: 100.0 mg/kg/injection, schedule: Q01DX001 (ip), vehicle: saline with Tween-80
[6] = dose: 100.0 mg/kg/injection, schedule: Q01DX009 (ip), vehicle: saline with Tween-80
[7] = dose: 100.0 mg/kg/injection, schedule: Q04DX002 (ip), vehicle: saline with Tween-80
[8] = dose: 100.0 mg/kg/injection, schedule: Q04DX003 (ip), vehicle: saline with Tween-80
[9] = dose: 200.0 mg/kg/injection, schedule: Q01DX001 (ip), vehicle: saline with Tween-80
[10] = dose: 200.0 mg/kg/injection, schedule: Q01DX009 (ip), vehicle: saline with Tween-80
[11] = dose: 200.0 mg/kg/injection, schedule: Q04DX002 (ip), vehicle: saline with Tween-80
[12] = dose: 200.0 mg/kg/injection, schedule: Q04DX003 (ip), vehicle: saline with Tween-80
[13] = dose: 400.0 mg/kg/injection, schedule: Q01DX001 (ip), vehicle: saline with Tween-80
[14] = dose: 400.0 mg/kg/injection, schedule: Q04DX003 (ip), vehicle: saline with Tween-80
[15] = dose: 100.0 mg/kg/injection, schedule: Q01DX001 (ip), vehicle: saline
[16] = dose: 200.0 mg/kg/injection, schedule: Q01DX001 (ip), vehicle: saline
[17] = dose: 400.0 mg/kg/injection, schedule: Q01DX001 (ip), vehicle: saline
[18] = dose: 100.0 mg/kg/injection, schedule: Q01DX001 (ip), vehicle: carboxymethylcellulose (CMC)
[19] = dose: 200.0 mg/kg/injection, schedule: Q01DX001 (ip), vehicle: carboxymethylcellulose (CMC)
[20] = dose: 400.0 mg/kg/injection, schedule: Q01DX001 (ip), vehicle: carboxymethylcellulose (CMC)
[21] = dose: 100.0 mg/kg/injection, schedule: Q01DX009 (ip), vehicle: Klucel (hydroxypropylcellulose) (HPC)
[22] = dose: 200.0 mg/kg/injection, schedule: Q01DX009 (ip), vehicle: Klucel (hydroxypropylcellulose) (HPC)
[23] = dose: 400.0 mg/kg/injection, schedule: Q01DX009 (ip), vehicle: Klucel (hydroxypropylcellulose) (HPC)
[24] = dose: 400.0 mg/kg/injection, schedule: Q01DX009 (ip), vehicle: saline with Tween-80
[25] = dose: 100.0 mg/kg/injection, schedule: Q04DX003 (ip), vehicle: saline
[26] = dose: 200.0 mg/kg/injection, schedule: Q04DX003 (ip), vehicle: saline
[27] = dose: 400.0 mg/kg/injection, schedule: Q04DX003 (ip), vehicle: saline
[28] = dose: 50.0 mg/kg/injection, schedule: Q01DX001 (ip), vehicle: carboxymethylcellulose (CMC)
[29] = dose: 100.0 mg/kg/injection, schedule: Q01DX009 (ip), vehicle: saline
[30] = dose: 400.0 mg/kg/injection, schedule: Q04DX002 (ip), vehicle: saline with Tween-80

Measured: T/C

O=C(Nc1cccc2ccccc12)OCC(Cl)(Cl)Cl
inactive: dose: 100.0 mg/kg/injection, schedule: Q01DX009 (ip), vehicle: carboxymethylcellulose (CMC) 97 % of control and 98 % of control | [1] 108 % of control | dose: 100.0 mg/kg/injection, schedule: Q04DX002 (ip), vehicle: carboxymethylcellulose (CMC) 108 % of control and 90 % of control | dose: 100.0 mg/kg/injection, schedule: Q04DX003 (ip), vehicle: carboxymethylcellulose (CMC) 103 % of control | dose: 200.0 mg/kg/injection, schedule: Q01DX009 (ip), vehicle: carboxymethylcellulose (CMC) 95 % of control and 90 % of control | [2] 96 % of control | dose: 200.0 mg/kg/injection, schedule: Q04DX002 (ip), vehicle: carboxymethylcellulose (CMC) 95 % of control and 97 % of control | dose: 200.0 mg/kg/injection, schedule: Q04DX003 (ip), vehicle: carboxymethylcellulose (CMC) 97 % of control | dose: 400.0 mg/kg/injection, schedule: Q01DX009 (ip), vehicle: carboxymethylcellulose (CMC) 95 % of control and 97 % of control | [3] 108 % of control | dose: 400.0 mg/kg/injection, schedule: Q04DX002 (ip), vehicle: carboxymethylcellulose (CMC) 97 % of control and 87 % of control | dose: 400.0 mg/kg/injection, schedule: Q04DX003 (ip), vehicle: carboxymethylcellulose (CMC) 94 % of control

Cc1nc(SCc2ccc(Cl)cc2)nc(N2CC2)c1Br
inactive: dose: 59.0 mg/kg/injection, schedule: Q01DX Z (ip), vehicle: methylcellulose (MC) 94 % of control | dose: 88.0 mg/kg/injection, schedule: Q01DX Z (ip), vehicle: methylcellulose (MC) 86 % of control | dose: 200.0 mg/kg/injection, schedule: Q01DX Z (ip), vehicle: methylcellulose (MC) 95 % of control

O=C(c1ccccc1[N+](=O)[O-])C(Br)C(Br)c1cccc2ccccc12 (stereo not given)
inactive: [4] 96 % of control and 91 % of control | [5] 96 % of control | [6] 93 % of control and 94 % of control | [7] 93 % of control | [8] 90 % of control | [9] 96 % of control | [10] 86 % of control and 89 % of control | [11] 88 % of control and 90 % of control | [12] 91 % of control | [13] 100 % of control | [14] 88 % of control

CC1=NNC(=O)C1(Cl)c1ccc(N)cc1 (stereo not given)
inactive: [15] 102 % of control | [16] 100 % of control | [17] 100 % of control

ON=C1CCC(CC2CCCCC2)CC1 (stereo not given)
inactive: [8] 95 % of control | [12] 100 % of control | [14] 101 % of control

C=CC1(C)C=C2CCC3C(C)(C(=O)O)CCCC3(C)C2CC1 (stereo not given)
inactive: [7] 106 % of control | [11] 95 % of control

O=C(O)CC1COc2ccccc2O1 (stereo not given)
inactive: [18] 91 % of control | [19] 105 % of control | [20] 94 % of control

c1ccc(C2SCCCS2)cc1
inactive: [21] 96 % of control | [22] 97 % of control | [23] 94 % of control

Cc1c2cnccc2c(C)c2c1c1ccccc1n2CCCl
inactive: dose: 31.25 mg/kg/injection, schedule: Q01DX009 (ip), vehicle: saline with Tween-80 106 % of control | dose: 37.5 mg/kg/injection, schedule: Q04DX003 (ip), vehicle: saline 93 % of control | dose: 62.5 mg/kg/injection, schedule: Q01DX009 (ip), vehicle: saline with Tween-80 109 % of control | dose: 75.0 mg/kg/injection, schedule: Q04DX003 (ip), vehicle: saline 97 % of control | dose: 150.0 mg/kg/injection, schedule: Q04DX003 (ip), vehicle: saline 98 % of control | dose: 300.0 mg/kg/injection, schedule: Q04DX003 (ip), vehicle: saline 100 % of control

CCOC(=O)C(Cc1csc2ccccc12)(NC(C)=O)C(=O)OCC
inactive: dose: 44.4 mg/kg/injection, schedule: Q01DX001 (ip), vehicle: carboxymethylcellulose (CMC) 93 % of control and 94 % of control | dose: 66.7 mg/kg/injection, schedule: Q01DX001 (ip), vehicle: carboxymethylcellulose (CMC) 93 % of control and 94 % of control | [18] 94 % of control and 98 % of control | dose: 150.0 mg/kg/injection, schedule: Q01DX001 (ip), vehicle: carboxymethylcellulose (CMC) 101 % of control and 91 % of control

O=C=Nc1cccc2c(N=C=O)cccc12
inactive: [6] 91 % of control

CCOC(=O)CNC1=NCCO1
inactive: [6] 91 % of control | [10] 96 % of control | [24] 93 % of control

O=C(Oc1cc(Cl)c(S(=O)(=O)F)cc1Cl)c1ccc([N+](=O)[O-])cc1
inactive: [1] 99 % of control | [2] 99 % of control | [3] 92 % of control

ClCCN(CCCl)c1ccc(CNCCCNCc2ccc(N(CCCl)CCCl)cc2)cc1
inactive: dose: 5.0 mg/kg/injection, schedule: Q01DX001 (ip), vehicle: carboxymethylcellulose (CMC) 105 % of control | dose: 10.0 mg/kg/injection, schedule: Q01DX001 (ip), vehicle: carboxymethylcellulose (CMC) 110 % of control | dose: 20.0 mg/kg/injection, schedule: Q01DX001 (ip), vehicle: carboxymethylcellulose (CMC) 103 % of control

O=C(O)c1ccc(C(=O)O)c([N+](=O)[O-])c1
inactive: [25] 102 % of control | [26] 100 % of control | [27] 96 % of control

CCN(CC)Cc1cc(NC(C)=O)ccc1O
inactive: [25] 102 % of control | [26] 97 % of control | [27] 113 % of control

CCCS/C(N)=N/N=C/c1ccc([N+](=O)[O-])o1
inactive: dose: 50.0 mg/kg/injection, schedule: Q01DX001 (ip), vehicle: other 96 % of control | dose: 100.0 mg/kg/injection, schedule: Q01DX001 (ip), vehicle: other 94 % of control

C/C(=N/O)c1ccccc1NO
inactive: dose: 25.0 mg/kg/injection, schedule: Q01DX001 (ip), vehicle: carboxymethylcellulose (CMC) 89 % of control | [28] 94 % of control | [18] 96 % of control | [19] 91 % of control | [20] 86 % of control

COc1ccc(COC(=O)Nc2cc(C(F)(F)F)ccc2Cl)cc1
inactive: [29] 100 % of control | dose: 200.0 mg/kg/injection, schedule: Q01DX009 (ip), vehicle: saline 107 % of control | dose: 400.0 mg/kg/injection, schedule: Q01DX009 (ip), vehicle: saline 105 % of control

N#CCCOCC(COCCC#N)OCCC#N
inactive: dose: 50.0 mg/kg/injection, schedule: Q01DX001 (ip), vehicle: saline 106 % of control | dose: 50.0 mg/kg/injection, schedule: Q01DX009 (ip), vehicle: saline 124 % of control | [15] 108 % of control | [29] 108 % of control | [16] 101 % of control | [17] 92 % of control

CCCCC(F)C(Br)C(=O)O (stereo not given)
inactive: [7] 97 % of control | [11] 87 % of control | [30] 93 % of control

CCCCCCCCCC[Se]C#N
inactive: dose: 5.0 mg/kg/injection, schedule: Q01DX001 (ip), vehicle: saline 112 % of control | dose: 10.0 mg/kg/injection, schedule: Q01DX001 (ip), vehicle: saline 114 % of control

COC(=O)c1cccc(OC)c1
inactive: [28] 102 % of control | [18] 98 % of control | [19] 104 % of control | [20] 93 % of control

Cc1c(Cl)cccc1NC(=O)Oc1ccccc1Cc1ccccc1
inactive: [4] 96 % of control and 102 % of control | [5] 95 % of control | [7] 96 % of control and 110 % of control | [8] 100 % of control | [9] 105 % of control | [11] 93 % of control and 92 % of control | [12] 94 % of control | [13] 86 % of control | [24] 97 % of control and 89 % of control | [30] 89 % of control and 91 % of control | [14] 86 % of control

O=C(c1ccc(C(=O)N(c2ccccc2)C2CCCCC2)cc1)N(c1ccccc1)C1CCCCC1
inactive: [21] 96 % of control | [22] 100 % of control | [23] 86 % of control
